Experimental data: paper PMC6131557, “Selective Cytotoxicity of Dihydroorotate Dehydrogenase Inhibitors to Human Cancer Cells Under Hypoxia and Nutrient-Deprived Conditions” (Frontiers in Pharmacology, 2018)
Where two headings read alike, the source gives them in different places.

Experiments:
HCT-15 = experiment: 39-cancer cell panel assay: HCT-15; format: cell-based; conditions: Homo sapiens, Co
MCF-7 = experiment: 39-cancer cell panel assay: MCF-7; format: cell-based; conditions: Homo sapiens, MCF7, Br
ACHN = experiment: 39-cancer cell panel assay: ACHN; format: cell-based; conditions: Homo sapiens, Re
DMS114 = experiment: 39-cancer cell panel assay: DMS114; format: cell-based; conditions: Homo sapiens, DMS-114, Lu
Complex II = target: T1, Complex II (Bos taurus, UniProt P35720+Q3T189+Q95123); experiment: Succinate:quinone reductase (complex II) activity, bovine mitochondria; format: biochemical
T1 construct: from tissue; host or cells: bovine mitochondrial fraction / sub-mitochondrial particles

Complex I = experiment: NADH dehydrogenase (complex I) activity, bovine mitochondria; format: biochemical; conditions: at 5 μM
Method: (§1) Recombinant human DHODH was purified, crystallized, and assayed as previously described ([Inaoka et al., 2016]) without modification. Bovine mitochondrial fractions were prepared as previously described ([Kita et al., 1988]) and NADH dehydrogenase (complex I), succinate:quinone reductase (complex II), quinol oxidase (complexes III–IV), NADH-cytochrome c reductase (complexes I–III), and succinate-cytochrome c (complexes II–III) activities were assayed following an established method ([Takamiya et al., 1986]; [Miyadera et al., 2001]; [Matsumoto et al., 2008]; [Kido et al., 2010]; [Nihashi et al., 2017]).

SNB-78 = experiment: 39-cancer cell panel assay: SNB-78; format: cell-based; conditions: Homo sapiens, CNS
KM-12 = experiment: 39-cancer cell panel assay: KM-12; format: cell-based, human; conditions: Co
St-4 = experiment: 39-cancer cell panel assay: St-4; format: cell-based; conditions: Homo sapiens
[1] = target: T2, human dihydroorotate dehydrogenase (HsDHODH) (Homo sapiens, UniProt Q02127); experiment: Inhibition of recombinant human DHODH enzyme activity; format: biochemical; conditions: recombinant human DHODH; purified enzyme fixed at 10 nM; read-out: IC50 (nM), inhibition of human DHODH
T2 construct: made in house

MDA-MB-231 = experiment: 39-cancer cell panel assay: MDA-MB-231; format: cell-based; conditions: Homo sapiens, Br
HT-29 = experiment: 39-cancer cell panel assay: HT-29; format: cell-based; conditions: Homo sapiens, Co
PC-3 = experiment: 39-cancer cell panel assay: PC-3; format: cell-based; conditions: Homo sapiens, Pro
SNB-75 = experiment: 39-cancer cell panel assay: SNB-75; format: cell-based; conditions: Homo sapiens, CNS
SF-539 = experiment: 39-cancer cell panel assay: SF-539; format: cell-based; conditions: Homo sapiens, CNS
HBC-5 = experiment: 39-cancer cell panel assay: HBC-5; format: cell-based; conditions: Homo sapiens, HBC5, Br
SK-OV-3 = experiment: 39-cancer cell panel assay: SK-OV-3; format: cell-based; conditions: Homo sapiens
MKN7 = experiment: 39-cancer cell panel assay: MKN7; format: cell-based; conditions: Homo sapiens, MKN-7, St
MKN45 = experiment: 39-cancer cell panel assay: MKN45; format: cell-based; conditions: Homo sapiens, MKN-45, St
LOX-IMVI = experiment: 39-cancer cell panel assay: LOX-IMVI; format: cell-based; conditions: Homo sapiens, Me
OVCAR-4 = experiment: 39-cancer cell panel assay: OVCAR-4; format: cell-based; conditions: Homo sapiens, Ov
OVCAR-8 = experiment: 39-cancer cell panel assay: OVCAR-8; format: cell-based; conditions: Homo sapiens, Ov
DLD-1 cells = experiment: Cytotoxicity assay (Cell Counting Kit-8 / WST-8) on DLD-1 cells; format: cell-based, human; conditions: for IC50: Homo sapiens
Method: For hypoxia and nutrient-deprived culture conditions, cells were incubated under 1% oxygen in glucose and glutamine-free DMEM (Gibco) without FBS.
DLD-1 or HDF cells were seeded at 2.5 × 10^4 cells/well on a 96-well plate with normal medium, and cultured overnight under normal culture condition. The cells were washed with PBS and the medium was replaced to either normal medium or glucose and glutamine-free DMEM without FBS. Test compounds or DMSO as a control were added to the wells. The cells in normal medium were cultured under normal culture conditions, while cells in nutrient-deprived medium were cultured under hypoxia condition. After 24 or 48 h incubation, the cells were washed with PBS, 100 μl of fresh normal medium, and 10 μl of Cell Counting Kit-8 solution (Donjindo, Japan) was added to each well. After 3 h incubation under normal culture condition, the absorbance was measured at 450 nm using SpectraMax M2e-TUY microplate reader (Molecular Devices). Cell viability of test wells was calculated based on absorbance of control wells containing DMSO according to manufacturer’s protocol.

HCT-116 = experiment: 39-cancer cell panel assay: HCT-116; format: cell-based; conditions: Homo sapiens, Co
Complexes I–III = experiment: NADH-cytochrome c reductase (complexes I–III) activity, bovine mitochondria; format: biochemical
Method: as §1

NCI-H460 = experiment: 39-cancer cell panel assay: NCI-H460; format: cell-based; conditions: Homo sapiens, Lu
RXF-631L = experiment: 39-cancer cell panel assay: RXF-631L; format: cell-based; conditions: Homo sapiens, Re
U251 = experiment: 39-cancer cell panel assay: U251; format: cell-based; conditions: Homo sapiens, U-251, CNS
MKN28 = experiment: 39-cancer cell panel assay: MKN28; format: cell-based; conditions: Homo sapiens, MKN-28, St
A549 = experiment: 39-cancer cell panel assay: A549; format: cell-based; conditions: Homo sapiens, Lu
BSY-1 = experiment: 39-cancer cell panel assay: BSY-1; format: cell-based; conditions: Homo sapiens, Br
Complex III = target: T3, Complex III (Bos taurus, UniProt P00157); experiment: Quinol oxidase (complex III) activity, bovine mitochondria; format: biochemical; conditions: ubiquinol oxidase activity
T3 construct: from tissue; host or cells: bovine mitochondrial fraction / sub-mitochondrial particles

OVCAR-5 = experiment: 39-cancer cell panel assay: OVCAR-5; format: cell-based; conditions: Homo sapiens, Ov
MKN74 = experiment: 39-cancer cell panel assay: MKN74; format: cell-based; conditions: Homo sapiens, MKN-74, St
MKN1 = experiment: 39-cancer cell panel assay: MKN1; format: cell-based; conditions: Homo sapiens, MKN-1, St
DMS273 = experiment: 39-cancer cell panel assay: DMS273; format: cell-based; conditions: Homo sapiens, DMS-273, Lu
Complex II–III = experiment: Succinate-cytochrome c reductase (complexes II–III) activity, bovine mitochondria; format: biochemical
Method: as §1

[2] = read-out: IC50 (μM) DLD-1 (24 h) Hypoxia nutrient (-), DLD-1, 24 h, hypoxia (1% oxygen), nutrient (-)
[3] = read-out: IC50 (μM) DLD-1 (24 h) Normoxia nutrient (+), DLD-1, 24 h, normoxia, nutrient (+)
[4] = DLD-1, 48 h, hypoxia (1% oxygen), nutrient (-), read-out: IC50 (μM) DLD-1 (48 h) Hypoxia nutrient (-)
[5] = DLD-1, 48 h, normoxia, nutrient (+), read-out: IC50 (μM) DLD-1 (48 h) Normoxia nutrient (+)

T1 sequence (P31039 45-665 partner limits assumed): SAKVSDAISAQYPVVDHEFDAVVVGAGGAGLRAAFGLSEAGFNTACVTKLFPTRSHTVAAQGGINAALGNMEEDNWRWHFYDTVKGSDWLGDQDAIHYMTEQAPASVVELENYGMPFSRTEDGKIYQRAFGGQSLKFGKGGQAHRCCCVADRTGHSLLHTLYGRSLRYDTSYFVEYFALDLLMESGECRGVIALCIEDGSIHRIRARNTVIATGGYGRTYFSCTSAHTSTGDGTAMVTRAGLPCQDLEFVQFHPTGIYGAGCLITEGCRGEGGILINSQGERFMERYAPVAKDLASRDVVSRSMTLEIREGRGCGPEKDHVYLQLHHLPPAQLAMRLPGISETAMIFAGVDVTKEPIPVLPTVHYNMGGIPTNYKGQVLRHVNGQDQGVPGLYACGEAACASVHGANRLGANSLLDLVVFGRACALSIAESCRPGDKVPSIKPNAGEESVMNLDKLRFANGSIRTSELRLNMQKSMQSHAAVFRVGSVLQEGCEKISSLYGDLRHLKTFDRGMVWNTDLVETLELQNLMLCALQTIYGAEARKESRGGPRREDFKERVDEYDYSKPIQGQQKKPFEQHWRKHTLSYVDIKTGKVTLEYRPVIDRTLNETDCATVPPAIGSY
T1 sequence (Q3T189 29-280): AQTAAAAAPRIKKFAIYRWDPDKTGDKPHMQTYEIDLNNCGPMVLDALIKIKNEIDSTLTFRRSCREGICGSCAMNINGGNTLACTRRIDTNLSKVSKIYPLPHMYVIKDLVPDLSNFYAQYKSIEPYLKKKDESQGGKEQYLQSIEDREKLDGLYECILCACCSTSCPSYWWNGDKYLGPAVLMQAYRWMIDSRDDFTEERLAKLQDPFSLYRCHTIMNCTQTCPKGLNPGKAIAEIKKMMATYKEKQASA
T1 sequence (P35720 30-169): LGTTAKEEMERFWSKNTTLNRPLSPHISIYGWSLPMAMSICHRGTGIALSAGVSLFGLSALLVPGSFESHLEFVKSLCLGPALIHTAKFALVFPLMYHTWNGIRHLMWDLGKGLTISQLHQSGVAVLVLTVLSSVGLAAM
T1 sequence (Q95123 56-158): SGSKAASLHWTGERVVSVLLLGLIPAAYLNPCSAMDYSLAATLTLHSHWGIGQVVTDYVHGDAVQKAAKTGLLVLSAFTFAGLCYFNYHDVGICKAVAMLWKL
T2 sequence (Q02127 whole entry): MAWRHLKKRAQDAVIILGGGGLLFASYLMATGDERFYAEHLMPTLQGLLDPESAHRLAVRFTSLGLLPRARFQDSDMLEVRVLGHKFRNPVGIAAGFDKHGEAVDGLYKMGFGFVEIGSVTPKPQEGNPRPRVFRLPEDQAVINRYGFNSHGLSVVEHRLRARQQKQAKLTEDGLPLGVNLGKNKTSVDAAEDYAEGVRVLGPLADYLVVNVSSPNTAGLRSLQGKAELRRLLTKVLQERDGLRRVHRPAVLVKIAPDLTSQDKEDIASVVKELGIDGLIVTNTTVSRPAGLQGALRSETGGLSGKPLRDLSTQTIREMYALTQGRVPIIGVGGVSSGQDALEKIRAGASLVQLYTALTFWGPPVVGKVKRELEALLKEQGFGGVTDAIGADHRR

C/C(=C\Cc1c(O)c(Cl)c(C)c(C=O)c1O)CC/C=C(\C)[C@@H]1CC(=O)C(C)(C)O1 [Compound 1, ascofuranone]
GI50 (HCT-15): 1.3 µM | GI50 (MCF-7): 9 µM | GI50 (ACHN): 10 µM | GI50 (DMS114): 19 µM | inhibition at 5 µM (Complex II): 1.5 ± 7.6% | Inhibition (%) Complex I (Complex I): 11 ± 5.8% | GI50 (SNB-78): 23 µM | GI50 (μM) KM-12 (KM-12): 9.3 µM | GI50 (St-4): 14 µM | IC50 [1]: 37.5 ± 12 nM | GI50 (MDA-MB-231): 7.4 µM | GI50 (HT-29): 6.6 µM | GI50 (PC-3): 13 µM | GI50 (SNB-75): 23 µM | GI50 (SF-539): 1.7 µM | GI50 (HBC-5): 28 µM | GI50 (SK-OV-3): 13 µM | GI50 (MKN7): 15 µM | GI50 (MKN45): 10 µM | GI50 (LOX-IMVI): 2.8 µM | GI50 (OVCAR-4): 5.9 µM | GI50 (OVCAR-8): 9.5 µM | IC50 (DLD-1 cells; [2]): 1.2 ± 0.79 µM | IC50 (DLD-1 cells; [3]): > 100 µM | IC50 (DLD-1 cells; [4]): 0.24 ± 0.057 µM | IC50 (DLD-1 cells; [5]): > 100 µM | GI50 (HCT-116): 5.1 µM | IC50 (Complexes I–III): 1.5 ± 0.04 µM | GI50 (NCI-H460): 2 µM | GI50 (RXF-631L): 12 µM | GI50 (U251): 1.5 µM | GI50 (MKN28): 9.7 µM | GI50 (A549): 7.6 µM | GI50 (BSY-1): 16 µM | inhibition at 5 µM (Complex III): 36 ± 1.2% | GI50 (OVCAR-5): 7.6 µM | GI50 (MKN74): 13 µM | GI50 (MKN1): 14 µM | GI50 (DMS273): 5.9 µM | IC50 (Complex II–III): 13 ± 1.7 µM

CC(C)=CCC/C(C)=C/CC/C(C)=C/Cc1c(O)c(Cl)c(C)c(C=O)c1O [Compound 8]
GI50 (HCT-15): 0.043 µM | GI50 (MCF-7): 1.3 µM | GI50 (ACHN): 0.79 µM | GI50 (DMS114): 2.5 µM | inhibition at 5 µM (Complex II): 8.2 ± 4.9% | Inhibition (%) Complex I (Complex I): 43 ± 1.8% | GI50 (SNB-78): 16 µM | GI50 (μM) KM-12 (KM-12): 2.0 µM | GI50 (St-4): 1.1 µM | IC50 [1]: ~5 nM | GI50 (MDA-MB-231): 2.8 µM | GI50 (HT-29): 1.1 µM | GI50 (PC-3): 1.2 µM | GI50 (SNB-75): 0.7 µM | GI50 (SF-539): 0.24 µM | GI50 (HBC-5): 16 µM | GI50 (SK-OV-3): 37 µM | GI50 (MKN7): 2.1 µM | GI50 (MKN45): 6.4 µM | GI50 (LOX-IMVI): 0.61 µM | GI50 (OVCAR-4): 13 µM | GI50 (OVCAR-8): 0.97 µM | IC50 fold lower than 1 (DLD-1 cells; DLD-1, 24 h, hypoxia nutrient-deprived, versus compound 1): 20 fold | IC50 (DLD-1 cells; [2]): 0.066 ± 0.042 µM | IC50 (DLD-1 cells; [3]): 81 ± 24 µM | IC50 (DLD-1 cells; [4]): 0.024 ± 0.003 µM | IC50 (DLD-1 cells; [5]): 38 ± 3.3 µM | selectivity ratio, microenvironment versus normal culture condition (DLD-1 cells; hypoxia and nutrient-deprived versus normal culture): over 1000 fold | GI50 (HCT-116): 0.46 µM | IC50 (Complexes I–III): 0.048 ± 0.001 µM | GI50 (NCI-H460): 0.21 µM | GI50 (RXF-631L): 11 µM | GI50 (U251): 0.43 µM | GI50 (MKN28): 1.3 µM | GI50 (A549): 0.77 µM | GI50 (BSY-1): 13 µM | inhibition at 5 µM (Complex III): > 80% | GI50 (OVCAR-5): 6.6 µM | GI50 (MKN74): 1.9 µM | GI50 (MKN1): 8.2 µM | GI50 (DMS273): 0.45 µM | IC50 (Complex II–III): 0.12 ± 0.013 µM
